We go through two compounds from patent US20020015942A1, “Method for cancer screening” (priority 1996, published 2002).

Test [1] relates to A10 cells. Description: Frequency of endoapoptotic bodies after incubation with cytochalasin B. Type of test: cell-based, Rat. Conditions: 48 h, 2 μg/ml in culture medium.
Test [2] has as its system A10 cells. How it is done: A10 cells were stained with acridine orange at different times after exposure to hydrogen peroxide (0.2 mM) and at least 500 cells were scored at each time interval to obtain the above graph. Lines 1-4 represent the frequency of apoptotic nuclei having characteristic fluorescence patterns.
Acridine orange and DAPI staining: Cells grown on glass coverslips were stained for 3-4 minutes in 100 μg/ml acridine orange (Sigma Chemicals Ltd) dissolved in HBSS; coverslips were rinsed briefly in HBSS and mounted in HBSS [19]. Cells were examined immediately in a Zeiss Axioskop fluorescence microscope equipped with filter #9 and epi-illumination. Double stranded DNA fluoresces green while single-stranded RNA and DNA fluoresce red after staining with acridine orange. In most of the experiments, endoapoptosis was scored by the presence of the endoapoptotic nuclei (mini cells) in very early (bright green fluorescence), mid phase (red fluorescence), late phase (no specific fluorescence) or the presence of a ‘ghost’ with no nuclear matrix, with or without fragmentation of the mini cells.

The subject of test [3] is A10 cells. Conditions: hydrogen peroxide-induced apoptotic cells.
Method: Electron microscopy: For studying endoapoptosis in transformed foci, NIH3T3 cells were grown on Thermanox plastic coverslips and the cells were processed as monolayer by fixation with 2% glutaraldehyde in 0.1 M cacodylate buffer, pH 7.3, overnight at 5° C., and post-fixed with 1% osmium tetroxide acid. Cells were in block stained overnight in 0.5% aqueous uranyl acetate, dehydrated in acetone and embedded in Epon resin. Thin sections were cut, stained with uranyl acetate and lead citrate and viewed in a Philips 300 electron microscope. In some cases the monolayer of cells were scraped with rubber policeman after fixation and pelleted and processed for sectioning as above.
Setting [4] is: 0.02 mM hydrogen peroxide, acridine orange.

On to `C=C1[C@@H](C)[C@H]2[C@H](Cc3ccccc3)NC(=O)[C@]23OC(=O)/C=C/[C@H](O)CCC[C@@H](C)C/C=C/[C@H]3[C@@H]1O` [cytochalasin B], for which, in the test with A10 cells [1], the “effect on frequency of endoapoptotic bodies” value is “did not reduce the frequency of endoapoptotic bodies”.
On to `OO` [hydrogen peroxide], for which the “induction of classic apoptosis” value in the test on A10 cells [2] (0.02 mM hydrogen peroxide in the culture medium, followed over 24 hours) is “classic apoptosis was induced”. In addition, in the test on A10 cells [2] (setting [4]), the “persistence of red nuclear fluorescence” value was 3 to 6 h and the “time after apoptotic death until nuclei displayed red fluorescence” value was 2 to 3 h. Besides, the “temporal changes in nuclear fluorescence pattern compared with 0.2 mM” value in the test on A10 cells [2] (0.1 mM hydrogen peroxide, acridine orange) is recorded as “induced similar changes with a 24 h delay”. For the same compound, in the test on A10 cells [3], the “nuclear changes in transmission electron microscopy” value is “typical apoptotic changes in the nucleus such as chromatin marginization and condensation”.
